Laboratory results: PMC4783179 (The Journal of comparative neurology, 2015)
Values joined by “and” are separate entries in the source; they are usually repeats but may differ in a detail not shown here. Equal entries are not always repeated. Where two headings read alike, the source gives them in different places.

What was measured:
5-HT1A receptors = conditions: ref Wooten et al., cited from earlier work
rabbits [1] = assay: 14-Day Toxicity Study of FCWAY, intravenous; assay type: in vivo; conditions: from rabbit 0.3 mg/kg/day
rabbits [2] = conditions: intravenous, 14 consecutive days, ref PDSP data base; cited from earlier work
[3] = test system: hippocampal extracellular serotonin levels; conditions: mice; ref Whittington and Virag, 2006; cited from earlier work
[4] = test system: serotonin release in the rat frontal cortex; conditions: ref Mukaida et al., 2007; cited from earlier work
human P-glycoprotein = conditions: cited from earlier work
human = conditions: ref PDSP data base; cited from earlier work
[5] = humans, baseline and with disulfiram; ref Ryu et al., 2007; cited from earlier work
[6] = humans, with disulfiram; ref Ryu et al., 2007; cited from earlier work
[7] = rat, in vivo; cited from earlier work

For `COc1ccccc1N1CCN(CCN(C(=O)C2CCC(CF)CC2)c2ccccn2)CC1` (single isomer, unassigned) [cis-isomer of Mefway], the “Binding compared to trans-isomer” value (5-HT1A receptors; 2011a) is given as “lower binding”.

For `COc1ccccc1N1CCN(CCN(C(=O)C2CCCC(CF)C2)c2ccccn2)CC1` (stereo not drawn) [3-Mefway analog], the “In vivo binding properties compared to 4-Mefway” value (5-HT1A receptors; 2014) is given as “lower in vivo binding properties”.

In the case of `COc1ccccc1N1CCN(CCN(C(=O)C2CCC(F)CC2)c2ccccn2)CC1` (stereo not drawn) [FCWAY], the “Human equivalent dose (HED) of the no-effect level” value (rabbits [1]) is listed as 0.097 mg/kg and the No-effect level (rabbits [2]) is listed as 0.3 mg/kg body weight/day.

In the case of `FC(F)OC(Cl)C(F)(F)F` (stereo not drawn) [Isoflurane], the “Hippocampal extracellular serotonin levels” value [3] is listed as < 40 % of baseline and the “Serotonin release, frontal cortex” value [4] is listed as < 40 % of awake state.

For `COc1ccccc1N1CCN(CCN(C(=O)c2ccc(F)cc2)c2ccccn2)CC1` [MPPF], the “Substrate of human P-glycoprotein” value (human P-glycoprotein) is given as “not being suitable substrates”.

For `COc1ccccc1N1CCN(CCN(C(=O)C2CCCCC2)c2ccccn2)CC1` [WAY-100635, N-{2-[4-(2-methoxyphenyl)piperazin-1-yl]ethyl}-N-(pyridine-2-yl)cyclohexanecarboxamide], the “Daily dose safely used in human” value (human) is given as “up to 700 μg/kg” and the “Substrate of human P-glycoprotein” value (human P-glycoprotein; ref Tournier et al., 2011) is given as “not being suitable substrates”.

In the case of `COc1ccccc1N1CCN(CCN(C(=O)C2CCC([18F])CC2)c2ccccn2)CC1` (stereo not drawn) [^18F-FCWAY], the Plasma free fraction [5] is listed as 13% and ~ 13% and the “Decrease of plasma clearance compared to baseline” value [6] is listed as 47%.

In the case of `O=C(O)[C@H]1CC[C@H](C[18F])CC1` [^18F-FMCHA], the “Brain penetration and retention” value [7] is given as “poor penetration and retention”.
